Measurements taken from ChEMBL document CHEMBL1159070, “Synthesis and disulfide bond connectivity-activity studies of a kalata B1-inspired cyclopeptide against dengue NS2B-NS3 protease” (Bioorg Med Chem, 2010).
Activity calls are given as the source filed them. No cut-off for these calls is given here.

Columns and labels:
[1] = tested on: dengue virus type 2; assay: (§1) Inhibition of Dengue virus 2 recombinant NS2B/3 protease expressed in Escherichia coli BL21(DE3) assessed as Dabcyl-KGRRSSKL-Edans substrate cleavage by fluorimetry
[2] = as §1; set-up: species or system dengue virus type 2

Compound | Activity [1] | IC50 [2] [µM] | Ki [2] [µM]
CC(C)C[C@@H]1NC(=O)CNC(=O)[C@H](CCCNC(=N)N)NC(=O)[C@H](CCCNC(=N)N)NC(=O)[C@H]([C@@H](C)O)NC(=O)[C@H](CS)NC(=O)[C@H](C(C)C)NC(=O)[C@@H]2CCCN2C(=O)[C@H](Cc2c[nH]c3ccccc23)NC(=O)[C@H](CO)NC(=O)[C@H](CCCNC(=N)N)NC(=O)[C@H](CCCNC(=N)N)NC(=O)[C@H](CS)NC(=O)CNC(=O)[C@H]2CCCN2C(=O)[C@H]([C@@H](C)O)NC(=O)[C@@H](N)CC(=O)NC(=O)[C@H](CS)NC(=O)CNC(=O)[C@H](CCCNC(=N)N)NC(=O)[C@H](CCCNC(=N)N)NC(=O)[C@H](CO)NC(=O)[C@H](CCC(=O)O)NC(=O)[C@H](CCC(=O)O)NC(=O)[C@H](CO)NC(=O)CNC(=O)[C@H](CS)NC(=O)[C@H](C(C)C)NC(=O)[C@@H]2CCCN2C1=O | Active |  | 
CC(C)C[C@@H]1NC(=O)CNC(=O)[C@H](CC(N)=O)NC(=O)[C@H](CCCNC(=N)N)NC(=O)[C@H]([C@@H](C)O)NC(=O)[C@H](CS)NC(=O)[C@H](C(C)C)NC(=O)[C@@H]2CCCN2C(=O)[C@H](CCC(=O)O)NC(=O)[C@H](CO)NC(=O)[C@H](CS)NC(=O)[C@H]([C@@H](C)O)NC(=O)[C@H](CS)NC(=O)CNC(=O)[C@@H]2CCCN2C(=O)[C@H]([C@@H](C)O)NC(=O)[C@H](CC(N)=O)NC(=O)[C@H](CS)NC(=O)[C@H]([C@@H](C)O)NC(=O)CNC(=O)CNC(=O)[C@H](C(C)C)NC(=O)[C@H](CS)NC(=O)[C@H]([C@@H](C)O)NC(=O)[C@H](CCC(=O)O)NC(=O)CNC(=O)[C@H](CS)NC(=O)[C@H](C(C)C)NC(=O)[C@@H]2CCCN2C1=O | inactive |  | 
CC(C)C[C@H](NC(=O)CN)C(=O)N1CCC[C@H]1C(=O)N[C@H](C(=O)N[C@@H](CS)C(=O)NCC(=O)N[C@@H](CCC(=O)O)C(=O)N[C@H](C(=O)N[C@@H](CS)C(=O)N[C@H](C(=O)NCC(=O)NCC(=O)N[C@H](C(=O)N[C@@H](CS)C(=O)N[C@@H](CC(N)=O)C(=O)N[C@H](C(=O)N1CCC[C@H]1C(=O)NCC(=O)N[C@@H](CS)C(=O)N[C@H](C(=O)N[C@@H](CS)C(=O)N[C@@H](CO)C(=O)N[C@@H](CCC(=O)O)C(=O)N1CCC[C@H]1C(=O)N[C@H](C(=O)N[C@@H](CS)C(=O)N[C@H](C(=O)N[C@@H](CCCNC(=N)N)C(=O)N[C@@H](CC(N)=O)C(=O)O)[C@@H](C)O)C(C)C)[C@@H](C)O)[C@@H](C)O)[C@@H](C)O)C(C)C)[C@@H](C)O)C(C)C | inactive |  | 
CC(C)C[C@@H]1NC(=O)CNC(=O)[C@H](CCCNC(=N)N)NC(=O)[C@H](CCCNC(=N)N)NC(=O)[C@H]([C@@H](C)O)NC(=O)[C@@H]2CSSC[C@H](NC(=O)CNC(=O)[C@@H]3CCCN3C(=O)[C@H]([C@@H](C)O)NC(=O)[C@@H](N)CC(=O)NC(=O)[C@@H]3CSSC[C@H](NC(=O)[C@H](C(C)C)NC(=O)[C@@H]4CCCN4C1=O)C(=O)NCC(=O)N[C@@H](CO)C(=O)N[C@@H](CCC(=O)O)C(=O)N[C@@H](CCC(=O)O)C(=O)N[C@@H](CO)C(=O)N[C@@H](CCCNC(=N)N)C(=O)N[C@@H](CCCNC(=N)N)C(=O)NCC(=O)N3)C(=O)N[C@@H](CCCNC(=N)N)C(=O)N[C@@H](CCCNC(=N)N)C(=O)N[C@@H](CO)C(=O)N[C@@H](Cc1c[nH]c3ccccc13)C(=O)N1CCC[C@H]1C(=O)N[C@@H](C(C)C)C(=O)N2 |  | 4.3 | 1.39
CC(C)C[C@@H]1NC(=O)CNC(=O)[C@H](CCCNC(=N)N)NC(=O)[C@H](CCCNC(=N)N)NC(=O)[C@H]([C@@H](C)O)NC(=O)[C@@H]2CSSC[C@H](NC(=O)[C@H](C(C)C)NC(=O)[C@@H]3CCCN3C1=O)C(=O)NCC(=O)N[C@@H](CO)C(=O)N[C@@H](CCC(=O)O)C(=O)N[C@@H](CCC(=O)O)C(=O)N[C@@H](CO)C(=O)N[C@@H](CCCNC(=N)N)C(=O)N[C@@H](CCCNC(=N)N)C(=O)NCC(=O)N[C@H]1CSSC[C@H](NC(=O)CNC(=O)[C@@H]3CCCN3C(=O)[C@H]([C@@H](C)O)NC(=O)[C@@H](N)CC(=O)NC1=O)C(=O)N[C@@H](CCCNC(=N)N)C(=O)N[C@@H](CCCNC(=N)N)C(=O)N[C@@H](CO)C(=O)N[C@@H](Cc1c[nH]c3ccccc13)C(=O)N1CCC[C@H]1C(=O)N[C@@H](C(C)C)C(=O)N2 |  | 9.3 | 3.03
